Patent US20230346727A1, “COMPOUNDS FOR THE TREATMENT OF HEMOPHILIA” (UNIVERSITE GRENOBLE ALPES, priority 2020, published 2023)

Experiments:
[1] = test system: plasma from the hemophiliac patient (hemophiliac patient A); experiment: Second ex vivo thrombin generation test (CAT analyzer, PPP Reagent LOW); format: biochemical, human; settings: for Amount of thrombin at the maximum of the peak, normalized to the thrombin peak obtained with adapalene: 50 μM final in plasma (positive control: factor VIII 1 IU/mL), HEPES buffer, negative control 0.13 ± 0.02; for peak of generated thrombin compared to negative and positive control, in words: 50 μM final in plasma
Experimental: A second thrombin generation test is carried out, for the compounds H27, H31, H32, H35, H38, H39 and the compound H24.
The thrombin generation test was carried out at 37° C. using a CAT analyzer (Diagnostica Stago) with the PPP Reagent LOW reagent (Diagnostica Stago) in accordance with the manufacturer's instructions and according to the method established by Pr. Hemker in 2003. PPP Reagent LOW is a mixture of tissue factor (TF) 1 pM with phospholipid vesicles (PL, 4 μM). The test is triggered by the addition of a mixture of calcium+fluorescent substrate (ZGGR-AMC) (FluCa mixture).
From a technical point of view, 80 μL of surcharged plasma sample is added to 20 μL of «initiator complex» (PPP Reagent LOW) and incubated for 10 min at 37° C. Then, the reaction is triggered by adding 20 μL of FluCa (mixture of CaCl2 and ZGGR-AMC substrate) and the fluorescence signal is measured over time. Each test is performed in triplicate.
For each tested molecule, 247 μL of plasma from the hemophiliac patient were surcharged with 13 μL of a solution containing different amounts of compound (molecule to be tested, factor VIII or dilution buffer) to obtain the desired final concentration (systematic dilution of the molecule to be tested in the plasma at 1/20). For example, to obtain the final concentration of 50 μM in plasma, 13 μL of a 1 mM solution was added to 247 μL of plasma. In parallel with the tests on the different chemical compounds, the plasma of a hemophiliac patient is surcharged with the same buffer for diluting the compound, an 8% solution of dimethyl sulfoxide (DMSO), as a negative control (0.4% of final DMSO) in order to obtain the basal level of thrombin generation of the used plasma. The positive control is the same plasma surcharged with plasma factor VIII (Factane, LFB, France) at a concentration of 1 IU/mL (or 100% factor VIII) in order to obtain the expected «normal» level of thrombin generation used plasma.
For this example, solutions of adapalene and 1 mM compounds were prepared with the buffer (18 mM HEPES, 135 mM NaCl, pH 7.35) instead of water as in Example 1. This modification has made it possible to increase the amount of thrombin generated by the plasma of the hemophiliac patient A in the presence of 50 μM of adapalene.
Compounds were tested at a final concentration of 50 μM in plasma, and signal was measured over time. The obtained results, expressed as the amount of thrombin measured at the maximum of the peak obtained and normalized to the thrombin peak obtained with adapalene, are shown in Table 1 below: […]

[2] = target: T1, FXa inhibition by TFPI-K1K2 (truncated human TFPI) (Homo sapiens, UniProt P10646, F53G); experiment: FXa activity assay: release of FXa inhibition by TFPI-K1K2 (colorimetric, PNAPEP-1025); format: biochemical; settings: 50 μM, TFPI-K1K2 30 nM, FXa 0.5 nM
T1 sequence (P10646 29-182 F53G): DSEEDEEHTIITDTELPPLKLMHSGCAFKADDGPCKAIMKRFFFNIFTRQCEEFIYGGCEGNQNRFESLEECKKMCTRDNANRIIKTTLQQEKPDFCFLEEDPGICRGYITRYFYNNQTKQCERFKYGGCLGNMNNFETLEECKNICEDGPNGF
Experimental: The ability of adapalene to reverse FXa inhibition by TFPI was assessed by using a low TFPI concentration FXa activity assay. For this test, a truncated human TFPI (TFPI-K1K2) was used, which is common to both TFPI isoforms α and β, having the amino acid sequence SEQ ID No 1:
Adapalene was tested for its ability to release FXa inhibition by TFPI-K1K2 using a colorimetric assay in a 96-well plate format. All steps were performed at room temperature. FXa inhibition by increasing TFPI-K1K2 concentrations was first analyzed to determine the best detection conditions. […]
Briefly, 14.5 μL of 350 μM adapalene, prediluted in the buffer described above, was added to 62.5 μL 50 nM TFPI-K1K2 and mixed together by aspiration/dispensing. After 10 min of incubation at room temperature, 6.25 μL of 8 nM FXa was added, the mixture was mixed again, and the activity of uninhibited FXa was quantified by the addition of 18 μL of PNAPEP-1025 (Cryopep), an FXa substrate, diluted to 2 mM in H2O. […]
The plates were centrifuged to remove any bubbles and the optical density (OD) at 405 nm, corresponding to the hydrolysis of the PNAPEP-1025 substrate, was measured for 1 h at room temperature. The absorbance value at t0, corresponding to an absorbance of 0.05, was subtracted and the […] restoration value was reported as a percentage of the positive control.

[3] = test system: plasma from a patient suffering from severe hemophilia A; experiment: Ex vivo thrombin generation test (STA-Genesia, STG-Bleedscreen reagent); format: biochemical, human
Experimental: The thrombin generation test consists of measuring the kinetics of appearance of this key coagulation factor in the plasma over time. After activation of coagulation by calcium, the amount of thrombin changes over time. It is measured using a synthetic thrombin substrate coupled to a fluorescent molecule (ZGGR-AMC). The main parameters determined are the latency time before observing an increase in thrombin generation, the thrombin peak corresponding to the maximum amount of thrombin generated and the ETP (endogenous thrombin potential) corresponding to the total amount of thrombin generated in plasma during the test. In the case of a patient with hemophilia A, the generation of thrombin is low or even almost zero for some patients. Adding the missing coagulation factor (factor VIII) to its physiological level (1 Ul/mL or 100%) restores coagulation in patients and recovers a «normal» thrombin generation. Thus, the thrombin generation test makes it possible to globally evaluate the coagulation rate of a given plasma and in the present case, it makes it possible to evaluate the capacity of a molecule to restore or not restore coagulation in a hemophiliac patient.
For this example, several ex vivo thrombin generation tests were carried out on plasma from a patient suffering from severe hemophilia A, therefore devoid of factor FVIII, in order to evaluate the effect on coagulation of a compound of general formula (I), more particularly adapalene, of formula (V) above, on the kinetics and the generated amount of thrombin.
Hemophiliac patient plasma was obtained from Cryopep company (Montpellier, France).
Adapalene is commercially available, in particular from Prestwick company. It was dissolved in an 8% dimethylsulfoxide (DMSO) solution then diluted to a concentration of 1 mM and then tested at the following concentrations: 50 μM, 5 μM, 0.5 μM (final concentrations in plasma).
The thrombin generation test was performed at 37° C. using a fully automated STA-Genesia analyzer (Diagnostica Stago) with STG®-Bleedscreen reagent (Diagnostica Stago) according to the manufacturer's instructions and according to the method established by Pr. Hemker in 2003. The STG®-Bleedscreen reagent is a mixture of tissue factor (TF) at low concentration with phospholipid vesicles (PL). The test is triggered by the addition of a mixture of calcium+fluorescent substrate (ZGGR-AMC) (STG®-FluoStart mixture).
From a technical point of view, 4 volumes of surcharged plasma sample are added to 1 volume of «initiator complex» (STG®-Bleedscreen) and incubated for 10 min at 37° C. Then, the reaction is triggered by adding 1 volume of STG®-FluoStart (mixture of CaCl2 and ZGGR-AMC substrate) and the fluorescence signal is measured over time. Each test is performed in duplicate
For each tested molecule, 475 μL of plasma from the hemophiliac patient were surcharged with 25 μL of a solution containing different amounts of compound (molecule to be tested, factor VIII or dilution buffer) to obtain the desired final concentration (systematic dilution of the molecule to be tested in the plasma at 1/20). For example, to obtain the final concentration of 50 μM in plasma, 25 μL of a 1 mM solution was added to 475 μL of plasma. The preparation of 500 μL of surcharged plasma allows to perform the 2 thrombin generation tests (duplicate), the 2 calibration tests (duplicate) and takes into account the dead volume of the automaton.
In parallel with the tests on the different chemical compounds, the plasma of a hemophiliac patient is surcharged with the same buffer for diluting the compound, an 8% solution of dimethylsulfoxide (DMSO), as a negative control (0.4% of final DMSO) in order to obtain the basal level of thrombin generation of the used plasma. The positive control is the same plasma surcharged with plasma factor VIII (Factane, LFB, France) at a concentration of 1 IU/mL (or 100% factor VIII) in order to obtain the expected «normal» level of used thrombin generation plasma. […]

[4] = adapalene 0.5 μM final in severe hemophilia A plasma
[5] = adapalene 5 μM final in severe hemophilia A plasma
[6] = adapalene 50 μM final in severe hemophilia A plasma

## COc1ccc(-c2ccc(C(=O)NCC(=O)O)cc2)cc1C12CC3CC(CC(C3)C1)C2 [Compound H24, 2-(3′-(adamantan-1-yl)-4′-methoxy-[1,1′-biphenyl]-4-ylcarboxamido)acetic acid]
[1]
  Amount of thrombin at the maximum of the peak, normalized to the thrombin peak obtained with adapalene: 0.23

## COc1ccc(N2CCc3cc(C(=O)O)ccc3C2)cc1C12CC3CC(CC(C3)C1)C2 [Compound H27, 2-(3-(adamantan-1-yl)-4-methoxyphenyl)-1,2,3,4-tetrahydroisoquinoline-6 carboxylic acid]
[1]
  Amount of thrombin at the maximum of the peak, normalized to the thrombin peak obtained with adapalene: 0.51

## COc1ccc(-c2ccc3nc(C(=O)O)ccc3c2)cc1C12CC3CC(CC(C3)C1)C2 [Compound H31, 6-(3-(adamantan-1-yl)-4-m2thoxyph2nyl)quinoline-2-carboxylic acid]
[1]
  Amount of thrombin at the maximum of the peak, normalized to the thrombin peak obtained with adapalene: 0.62

## COc1ccc(-c2ccc3cc(C(=O)O)cnc3c2)cc1C12CC3CC(CC(C3)C1)C2 [Compound H32, 7-(3-(adamantan-1-yl)-4-methoxyphenyl)quinoline-3-carboxylic acid]
[1]
  Amount of thrombin at the maximum of the peak, normalized to the thrombin peak obtained with adapalene: 0.55

## C#CCOc1ccc(-c2ccc3cc(C(=O)O)ccc3c2)cc1C12CC3CC(CC(C3)C1)C2 [Compound H35, 6-(3-(adamantan-1-yl)-4-(prop-2-yn-1-yloxy)phenyl)-2-naphthoic acid]
[1]
  Amount of thrombin at the maximum of the peak, normalized to the thrombin peak obtained with adapalene: 0.53

## COc1ccc(-c2ccc3cc(C(=O)O)cc(O)c3c2)cc1C12CC3CC(CC(C3)C1)C2 [Compound H38, 6-(3-(adamantan-1-yl)-4-methoxyphenyl)-4-hydroxy-2-naphthoic acid]
[1]
  peak of generated thrombin compared to negative and positive control, in words: much higher
  Amount of thrombin at the maximum of the peak, normalized to the thrombin peak obtained with adapalene: 0.96

## COc1ccc(-c2ccc3cc(CS(=O)(=O)O)ccc3c2)cc1C12CC3CC(CC(C3)C1)C2 [Compound H39, (6-(3-(adamantan-1-yl)-4-methoxyphenyl)naphthalen-2-yl)methanesulfonic acid]
[1]
  peak of generated thrombin compared to negative and positive control, in words: much higher
  Amount of thrombin at the maximum of the peak, normalized to the thrombin peak obtained with adapalene: 1.22

## COc1ccc(-c2ccc3cc(C(=O)O)ccc3c2)cc1C12C[C@H]3C[C@@H](C1)C[C@@H](C2)C3 [adapalene, 6-[3-(1-adamantyl)-4-methoxyphenyl]naphthalene-2-carboxylic acid]
[2]
  coagulation restoration percentage (percentage of the positive control): approximately 14%
[2]; negative control OD 0.048, positive control OD 0.406
  optical density (OD) at 405 nm, hydrolysis of PNAPEP-1025 by uninhibited FXa: 0.105
[3]; 50 μM in severe hemophilia A plasma, FIG. 3 and FIG. 4
  generation of thrombin (peak and ETP) compared to negative and positive control, in words: increase in the generation of thrombin compared to the negative control
[3]; [4]
  ETP (endogenous thrombin potential): 455 nM·min
  thrombin peak: 29.7 nM
[3]; [5]
  ETP (endogenous thrombin potential): 504 nM·min
  thrombin peak: 39 nM
[3]; [6]
  ETP (endogenous thrombin potential): 588 nM·min
  thrombin peak: 55 nM
[1]
  peak of generated thrombin compared to negative and positive control, in words: much higher
  Amount of thrombin at the maximum of the peak, normalized to the thrombin peak obtained with adapalene: 1
